Source: patent US20230130103A1, “TARGETED PHARMACOLOGICAL THERAPEUTICS IN UVEAL MELANOMA” (Washington University, priority 2017, published 2023)
Starred links: 1 amine or outer side, 2 acyl side, 3 side chain; linkers in the order of their positions; H or OH if unused. Positions of bridges follow the written chain, without caps; N, C: chain ends. Non-standard residues stand in square brackets, D forms with d. Residues, ends and D or L forms follow the SMILES beside them. *: point of attachment. Leu(3R-OH,Nα-propionyl) = CCC(=O)N[C@H](C(=O)*)[C@H](O)C(C)C; X1 = CC(C)[C@@H](O[*:3])[C@H](N[*:1])C(=O)[*:2]; X2 = CC(C)[C@H](O[*:3])[C@@H](N[*:1])C(=O)[*:2]; NMeaThr = CN[C@H](C(=O)O)[C@H](C)O; dPhLac = O=C(O)[C@H](O)Cc1ccccc1; NMeA = CN[C@@H](C)C(=O)O; NMeDha = C=C(NC)C(=O)O

Test system: 92.1 UM cells
Assay: Gene Set Enrichment Analysis (GSEA) of RNA-Seq data
Assay type: cell-based, Human
[1] = gene set REACTOME_ADAPTIVE_IMMUNE_SYSTEM
[2] = gene set REACTOME_APC_C_CDC20_MEDIATED_DEGRADATION_OF_MITOTIC_PROTEINS
[3] = gene set REACTOME_APC_C_CDH1_MEDIATED_DEGRADATION_OF_CDC20_AND_OTHER_APC_C_CDH1_TARGETED_PROTEINS_IN_LATE_MITOSIS_EARLY_G1
[4] = gene set REACTOME_B[?]_INFECTION
[5] = gene set REACTOME_CHOLESTEROL_BIOSYNTHESIS
[6] = gene set REACTOME_DOUBLE_STRAND_BREAK_REPAIR
[7] = gene set REACTOME_E2F_MEDIATED_REGULATION_OF_DNA_REPLICATION
[8] = gene set REACTOME_EXTENSION_OF_TELOMERES
[9] = gene set REACTOME_FACTORS_INVOLVED_IN_MEGAKARYOCYTE_DEVELOPMENT_AND_PLATELET_PRODUCTION
[10] = gene set REACTOME_G0_AND_EARLY_G1
[11] = gene set REACTOME_HOST_INTERACTIONS_HIV_FACTORS
[12] = gene set REACTOME_LICAM_INTERACTIONS
[13] = gene set REACTOME_METABOLISM_OF_NON_CODING_RNA
[14] = gene set REACTOME_PREFOLDIN_MEDIATED_TRANSFER_OF_SUBSTRATE_TO_CCT_TRIC
[15] = gene set REACTOME_TRANSPORT_OF_MATURE_MRNA_DERIVED_FROM_AN_INTRONLESS_TRANSCRIPT
[16] = gene set REACTOME_[?]_REMOVAL_FROM_CHROMATIN
[17] = gene set REACTOM_GLUCONE_TRANSPORT
[18] = gene set RMEIN_GLUCOCORTICOID_THERAPY_DN
[19] = gene set SAKAL_CHRONIC_HEPATITIS_VS_LIVER_CANCER_UP
[20] = gene set SASAKI_ADULT_T_CELL_LEUKEMIA
[21] = gene set SASSON_RESPONSE_TO_FORSKOLIN_UP
[22] = gene set SASSON_RESPONSE_TO_GONADOTRPHINS_UP
[23] = gene set SCHMIDT_FOR_TARGETS_IN_LIMB_BUD_UP
[24] = gene set SCIBETTA_KDMS8_TARGETS_DN
[25] = gene set SENESE_HDAC1_TARGETS_UP
[26] = gene set SENESE_HDAC2_TARGETS_UP
[27] = gene set SHEPARD_CRUSH_AND_BURN_MUTANT_DN
[28] = gene set SMIRNOV_RESPONSE_TO_IR_6HR_DN
[29] = gene set WAKASUGI_HAVE_ZNF143_BINDING_SITES
[30] = gene set WELSCH_BRCA1_TARGETS_DN
[31] = gene set WHITFIELD_CELL_CYCLE_5
[32] = gene set WHITFIELD_CELL_CYCLE_M_G2
[33] = gene set [?]_APOPTOSIS_BY_REOVIRUS_INFECTION_DN
[34] = gene set [?]_E2F3_ONCOGENIC_SIGNATURE
[35] = gene set [?]_ESTRADIOL_RESPONSE_6HR_UP
[36] = gene set [?]_HYPOXIA_NOT_VIA_[?]
[37] = gene set [?]_OVARIAN_CANCER_INVAVSIVE_VS_LMP_UP
[38] = gene set [?]_PSEUDOPODIA_HAPTOTAXIS_DN
[39] = gene set […]_NEUTROPHIL_AT_SKIN_WOUND_DN
[40] = gene set mARTORIATE_MDM4_TARGETS_FETAL_LIVER_DN

C=C1C(=O)N[C@@H](C)C(=O)N(C)[C@@H](C)C(=O)N[C@H]([C@@H](OC(=O)[C@@H](NC(=O)CC)[C@H](O)C(C)C)C(C)C)C(=O)N(C)[C@@H]([C@H](C)OC)C(=O)O[C@H](C(C)C)[C@H](NC(C)=O)C(=O)O[C@H](Cc2ccccc2)C(=O)N1C [FR, [(1S)-1-[(3S,6R,9S,12S,18R,21S,22R)-21-acetamido-18-benzyl-3-[(1S)-1-methoxyethyl]-4,9,10,12,16-pentamethyl-15-methylidene-2,5,8,11,14,17,20-heptaoxo-22-propan-2-yl-1,19-dioxa-4,7,10,13,16-pentazacyclodocos-6-yl]-2-methylpropyl] (2S,3R)-3-hydroxy-4-methyl-2-(propanoylamino)pentanoate] (Ac-[X1][dPhLac][NMeDha]A[NMeA][X2](Leu(3R-OH,Nα-propionyl))[NMeaThr](Me); ester 1-C)
ES [1]: 0.3979 | NES [1]: 2.13 | ES [2]: 0.5518 | NES [2]: 2.142 | ES [3]: 0.56 | NES [3]: 2.187 | ES [4]: 0.4639 | NES [4]: 2.188 | ES [5]: 0.6781 | NES [5]: 2.138 | ES (gene set REACTOME_DNA_REPAIR): 0.4835 | NES (gene set REACTOME_DNA_REPAIR): 2.1 | ES [6]: 0.6821 | NES [6]: 2.156 | ES [7]: 0.5585 | NES [7]: 2.256 | ES [8]: 0.6128 | NES [8]: 2.062 | ES [9]: 0.4943 | NES [9]: 2.346 | ES [10]: 0.5589 | NES [10]: 2.109 | ES [11]: 0.4871 | NES [11]: 2.139 | ES [12]: 0.4901 | NES [12]: 2.064 | ES [13]: 0.5725 | NES [13]: 2.142 | ES (gene set REACTOME_NEP_NS2_INTERACTS_WITH_THE_CELLULAR_EXPORT_MACHINERY): 0.6472 | ES [14]: 0.6276 | NES [14]: 2.059 | ES [15]: 0.6258 | NES [15]: 2.187 | ES [16]: 0.5346 | NES [16]: 2.104 | ES [17]: 0.6343 | NES [17]: 2.211 | NES (gene set REN_ALVEOLAR_RHABDOMYOSARCOMA_DN): 2.084 | ES [18]: 0.429 | NES [18]: 2.253 | ES [19]: 0.4953 | NES [19]: 2.051 | ES [20]: 0.4693 | NES [20]: 2.213 | ES [21]: 0.4936 | NES [21]: 2.087 | ES [22]: 0.5309 | NES [22]: 2.23 | ES [23]: 0.6919 | NES [23]: 2.232 | ES [24]: 0.4986 | NES [24]: 2.107 | ES [25]: 0.4141 | NES [25]: 2.222 | ES [26]: 0.4933 | NES [26]: 2.179 | ES (gene set SHEPARD_BMYB_TARGETS): 0.5123 | NES (gene set SHEPARD_BMYB_TARGETS): 2.125 | ES [27]: 0.4366 | NES [27]: 2.055 | NES (gene set SHIPP_D[?]CL_VS_FOLLICULAR_LYMPHOMA_UP): 2.142 | ES [28]: 0.4874 | NES [28]: 2.135 | ES (gene set SP1_Q4_01): 0.4346 | NES (gene set SP1_Q4_01): 2.133 | ES (gene set TBK1DF_DN): 0.434 | NES (gene set TBK1DF_DN): 2.201 | ES [29]: 0.5464 | NES [29]: 2.135 | ES [30]: 0.4808 | NES [30]: 2.25 | ES [31]: 0.4808 | NES [31]: 2.252 | ES [32]: 0.4742 | NES [32]: 2.151 | ES (gene set WINTER_HYPOXIA_UP): 0.5079 | NES (gene set WINTER_HYPOXIA_UP): 2.091 | ES (gene set [?]ENPORAIN_17513976.21_2): 0.5458 | ES [33]: 0.4088 | NES [33]: 2.137 | ES [34]: 0.4474 | NES [34]: 2.256 | ES [35]: 0.4279 | NES [35]: 2.138 | ES [36]: 0.3777 | NES [36]: 2.125 | ES [37]: 0.4908 | NES [37]: 2.191 | ES [38]: 0.396 | NES [38]: 2.222 | ES (gene set [?]_[?]1): 0.4368 | NES (gene set [?]_[?]1): 2.127 | ES (gene set [?]_[?]_Q6): 0.372 | NES (gene set [?]_[?]_Q6): 2.07 | ES [39]: 0.4325 | NES [39]: 2.066 | ES [40]: 0.4046 | NES [40]: 2.198
